Measured values as given in patent US9040586B2, “Veterinary compositions for controlling ecto- and endoparasites in bovines, use of these compositions, use of IGR substances associated with microminerals, method for controlling ecto- and endoparasites in bovines and kit” (Champion Farmoquimico Ltda., priority 2012, dated 2015).

Experiments:
[1] = cited from earlier work
[2] = cited from earlier work; remark: listed apart in the source
[3] = test system: Haematobia irritans; test: Haematobia irritans in vitro test: eggs developed in feces of treated cattle; assay type: in vivo; details: 20 days
Method: In order to evaluate the efficacy of Diflubenzuron over H. irritans larval development, without possible interference of climate changes, an experiment was conducted under controlled conditions.
Adult horn flies over untreated animals were captured with a net and then shipped to the Tropical Pathology and Public Health Institute (IPTSP/GO) in order to obtain the eggs. The flies were put on cages lined with moist coffee filter as a substrate for oviposition. The filter was inspected every three hours for eggs. Those were subject to analysis regarding viability and transferred to a vessel containing feces from 4 animals among the control and diflubenzuron treated groups, randomly chosen, each containing 50 viable eggs. These containers with feces were maintained in a B.O.D. incubator with constant temperature (25° C.) and under photoperiod of 12 hours, for a 20 day period, at the end of which was noted an end to the hatching of eggs.
Both groups—T0 e T1—, were statistically compared by the Mann-Whitney test, with P adjusted in 0.05 due to the impossibility of testing distribution normality, given the low number of repetitions (n=4).

[4] = test system: Haematobia irritans; test: Haematobia irritans field test: horn fly counts on calves; assay type: in vivo
Method: The experiment was conducted at Fazenda Santo Amaro in the city of Ouro Verde de Goiás—GO, Brazil, between October 2011 and January 2012, on 20 calves aged 12-16 months and weigh between 147 and 305 kg, divided in control group (T0) and treated group (T1).
The animals were weighed, identified and kept on Brachiaha brizantha pasture with “ad libitum” access to drinking water troughs. The control group received “ad libitum” minerals (T0), while the treated group received a micromineral mixture containing iron, copper, manganese, iodine, cobalt, zinc, selenium and chromium added to rock salt. Diflubenzuron was added to this mixture in the following proportion: 1.1 g per kilo of the mixture. A macromineral source was offered separately in the trough.
In order to determine the number of horn flies, ticks and helminth eggs per gram of feces, as well as periodic weighing, the animals were handled in a 30 day basis.
The animals were lead to the corral for the initial counting of the total number of horn flies in the cervical and lumbar regions.
The field experiment was conducted during the summer, a critical period for horn fly infestations in Brazil (BIANCHIN et al., 2004). […]
At the end of the experimental period, the animals were lead to the containment chute to have the flies counted. […]

[5] = test system: Rhipicephalus (Boophilus) microplus; test: Rhipicephalus (Boophilus) microplus challenge: engorged female weight and oviposition; assay type: in vivo, calves; details: treated group
Method: For this challenge, 5 animals were randomly selected from each group. Animals from both control and treated groups were transferred to individual tick-free pens with wooden tiled floor, where they remained for 21 days until the engorged females dropped to the ground. Those were collected on a daily basis for a 5 day period, and put on plastic vessels, formerly washed and dried with paper towels. After the engorged ticks were weighed, they're put on Petri dishes and then into a B.O.D. incubator for two weeks, under 27° C. and relative humidity over 85% (SANTOS e FURLONG, 2002; PEREIRA, 2006).
After this period, oviposition in each of the Petri dishes were weighed and transferred to assay tubes (15 cm high and with a 15 mm diameter each) sealed with cotton. The assays tubes were labeled and then returned to the B.O.D. incubator, under the same conditions described above, up to the larval emergence.

[6] = test system: gastrointestinal nematodes of cattle; details: 19 of the 23 farms; cited from earlier work

Cc1ccc(N=c2sccn2C)c(C)c1 [Cymiazoles]
withdrawal prior to slaughter ([1]; beef cattle): 3 days | Withdrawal period Milk ([1]; milk / lactating cows, in words, table cells wrap over 4 rows: 'Do not apply on lactating cows'): no withdrawn period needed

CC1(C)C(C=C(Cl)Cl)C1C(=O)OC(C#N)c1cccc(Oc2ccccc2)c1 (stereo not drawn) [Cypermethrin]
Oral LD50 [2]: 250 mg/kg

CC1(C)[C@H](C(=O)O[C@H](C#N)c2cccc(Oc3ccccc3)c2)[C@@H]1C=C(Br)Br [Deltamethrin]
Oral LD50 [2]: 130 mg/kg

O=C(NC(=O)c1c(F)cccc1F)Nc1ccc(Cl)cc1 [Diflubenzuron, 1-(4-chloridephenyl)-3-(2,6-difulorobenzoyl)urea]
hatching average ([3]; 50 viable eggs per container, feces of treated cattle, 25° C., control 43±4.1633): 0.5±0.1 | calculated efficiency, based on the control group ([3]; in vitro, method of HOLDSWORTH et al., 2006): 98.83% | reduction on horn fly numbers on the treated group [4]: higher than 99% | average engorged female ticks' weight ([5]; control 278 mg): 153 mg | weight of collected engorged ticks ([5]; control 260-295 mg): 145 to 165 mg | average egg laying of the female ([5]; control 2,600): 900 eggs | median lethal dose ([2]; in vivo): 4,640 mg/kg

N#Cc1nn(-c2c(Cl)cc(C(F)(F)F)cc2Cl)c(N)c1[S+]([O-])C(F)(F)F (stereo not drawn) [Fipronil]
Oral LD50 [2]: 97 mg/kg

Abamectin
Oral LD50 [2]: 10 mg/kg

Ivermectin
Oral LD50 [2]: 52 mg/kg | reductions in FEC [6]: < 50%
